Experimental findings from patent US10344065B2, “Method for treating Alzheimer's disease and method for downregulating protein aggregation in brain” (National Cheng Kung University, priority 2017, dated 2019) are described below.

Experiment [1] has as its system TPC6AΔ peptides. Description: Aggregation of serine-containing TPC6AΔ peptides in PBS. Particulars: 24 hours, room temperature. It is filed as biochemical. How it is done: FIG. 5 includes photos and diagrams showing that Zfra suppresses polymerization or aggregation of serine-containing TPC6AΔ and other peptides in PBS. Zfra4-10 was incubated with an indicated serine-containing peptide in PBS at room temperature for 24 hours (final 200 μM each peptide). The mixtures were subjected to nonreducing sodium dodecyl sulfate polyacrylamide gel electrophoresis (SDS-PAGE). (A) Full-length Zfra or red-fluorescent TMR-Zfra blocked aggregation of Aβ42 (lanes 3, 5, and 7). […] The membrane was stained with antibody against Aβ. (B) Zfra4-10 and one of the TPC6AΔ peptides were resuspended in Milli-Q water or PBS and incubated for 24 hours at room temperature. Zfra4-10 suppressed the polymerization of serine-containing peptides. Reduction in intensity=[1−(Z.P)/(Z+P)]×100%, where Z=Zfra4-10, P=an indicated peptide, and Z.P=peptide mixture. […] Zfra4-10 suppressed polymerization of these peptides in PBS.
Zfra and serine-containing peptides were synthesized by Genemed Synthesis (San Antonio, Tex., USA), (1) Zfra1-31, […] (SEQ ID NO: 2); (2) Zfra4-10, RRSSSCK (SEQ ID NO: 1); (3) WWOX7-21, AGLDDTDSEDELPPG (SEQ ID NO: 3); (4) pS14-WWOX7-21, AGLDDTDpSEDELPPG (SEQ ID NO: 4); (5). […]

In experiment [2] the test system is pyramidal neurons in the hippocampi. Nature of the experiment: Melanoma B16F10-induced neurodegeneration in nude mice. Particulars: hippocampi of nude mice pretreated 3 consecutive weeks via tail veins, then B16F10 inoculated. It is filed as in vivo, mouse. How it is done: FIG. 4 includes photos showing that Zfra suppresses melanoma B16F10-mediated neurodegeneration in the hippocampus. Nude mice were preinjected with 100 μL, of sterile Milli-Q water or Zfra4-10 (1 mM in sterile water) in 3 consecutive weeks. After treatment for a week, these mice were inoculated with melanoma B16F10 cells on both flanks (2×10^5 cells in 100-μL, PBS). Mice were sacrificed when the tumor sizes grew up to 2000-3000 mm^3 in about a month. (A) Zfra blocked neurodegeneration in the hippocampus (top panel) and prevented the formation of TPC6AΔ plaques in the cortex (bottom panel), which negatively correlates with pS14-WWOX expression. Note the presence of condensed apoptotic nuclei in the hippocampal neurons in the control mice, (B) Metastasis of B16F10 cells to the lung was blocked in Zfra-treated mice. Compared to controls, Zfra suppressed p-S14WWOX expression in the lung by ˜72% suppression (three sections). […] (C and D) The non-spatial learning and memory were determined by novel object recognition task for both 3×Tg and Wwox+/− mice. […]
Six- to eight-week-old male nude (BALB/cAnN.Cg-Foxn1^nu/CrlNarl) mice (National Laboratory Animal Center, Taiwan) were used. […] Tumor volumes were measured daily and calculated using the equation, D×(d)^2/2, where D and d are the major and minor diameters, respectively. […] Z-cell distribution in organs was determined under fluorescence microscopy.

Turning to “RRSSSCK [Zfra4-10, truncated zinc finger-like peptide, amino acids 4-10 of Zfra]”, in experiment [1], the “aggregation of TPC6AΔ peptides (TPC6AΔ24-38, pS35-TPC6AΔ24-38, TPC6AΔ84-100)” value is “effectively blocked”. Moreover, the apoptotic nuclei in experiment [2] came out at 0±1%.
